Reference: ChEMBL document CHEMBL1201862, “PubChem BioAssay data set” (2004)
Activity calls are given as the source filed them.

What was measured:
[1] = target: T1, Voltage-gated N-type calcium channel alpha-1B subunit/Amyloid beta A4 precursor protein-binding family A member 1 (Homo sapiens, UniProt Q00975+Q02410); assay: disruptors of Mint-PDZ/N-type channel peptide interaction – biochemical, HTRF, set 2, SAR follow-up (AID 434980); format: functional
[2] = target: T1, Voltage-gated N-type calcium channel alpha-1B subunit/Amyloid beta A4 precursor protein-binding family A member 1; assay: disruptors of Mint-PDZ/N-type channel peptide interaction – biochemical, HTRF, SAR follow-up (AID 2489); format: functional
[3] = target: Heat shock protein HSP 90-alpha (Homo sapiens, UniProt P07900); format: functional, organism-based
[4] = target: C-C chemokine receptor type 6 (Homo sapiens, UniProt P51684); assay: CCR6 receptor antagonists, dose response, cell-based, luminescent beta-arrestin readout (AID 504728); format: functional
Vero = assay: cells; format: functional; conditions: Chlorocebus sabaeus
Beta-galactosidase = Beta-galactosidase (Escherichia coli, UniProt Q8VNN2); assay: beta-galactosidase enzyme inhibitors and activators, dose response, artefact control for CCR6 antagonist project, biochemical, E. coli enzyme, set 3 (AID 504712); format: functional
[5] = target: T2, Ubiquitin-conjugating enzyme E2 N (Homo sapiens, UniProt P61088); format: functional;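 further: Dose-response confirmation in a TR-FRET assay detecting UBC13-driven polyubiquitin chain formation, inhibition measured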
T2 sequence (P61088 whole entry): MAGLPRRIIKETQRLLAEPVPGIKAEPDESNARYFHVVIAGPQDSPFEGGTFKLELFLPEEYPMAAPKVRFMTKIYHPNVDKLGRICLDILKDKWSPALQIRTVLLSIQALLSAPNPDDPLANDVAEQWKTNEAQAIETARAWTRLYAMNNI

[6] = Luminescence Cell-Based Dose Retest to Confirm Inhibitors of Cancer Stem Cells. [Related pubchem assays (depositor defined):AID2717, AID2721]; format: functional; conditions: Homo sapiens
INS1 = assay: beta cell apoptosis inhibitors, cytokine rescue, dose response, luminescence, retest (AID 449756); format: functional, cell-based; conditions: Rattus norvegicus;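 further: cell death triggered by IL-1 beta plus TNF-alpha plus IFN-gamma mixture; protective hits raise ATP signal compared with cytokine alone wells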
[7] = target: Neurotensin receptor type 1 (Homo sapiens, UniProt P30989); format: functional;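 further: Image-based confirmatory dose-response assay measuring agonist activity at NTR1; NTR1-expressing U2OS osteosarcoma cells imaged for beta-arrestin GFP spot formation; agonist potency where compounds increase beta-arrestin recruitment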
Chain of Neurotensin receptor type 1 (P30989 whole entry): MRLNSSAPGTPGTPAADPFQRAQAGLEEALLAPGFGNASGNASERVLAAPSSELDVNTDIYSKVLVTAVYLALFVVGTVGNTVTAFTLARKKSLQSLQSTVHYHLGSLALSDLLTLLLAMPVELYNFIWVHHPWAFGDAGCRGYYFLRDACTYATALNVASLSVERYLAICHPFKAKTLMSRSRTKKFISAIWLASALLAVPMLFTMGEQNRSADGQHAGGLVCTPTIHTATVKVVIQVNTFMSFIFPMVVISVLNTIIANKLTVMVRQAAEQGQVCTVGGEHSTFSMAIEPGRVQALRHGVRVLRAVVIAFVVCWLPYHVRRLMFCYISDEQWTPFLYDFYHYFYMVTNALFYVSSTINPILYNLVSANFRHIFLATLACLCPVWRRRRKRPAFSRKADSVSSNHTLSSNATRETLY

Wee1-like protein kinase = Wee1-like protein kinase (Homo sapiens, UniProt P30291); assay: G2/M cell cycle arrest in HeLa, late-stage follow-up, mechanism study for Wee1 degradation inhibitor project, FACS, panel member Wee1 Degradation (AID 2088)
[8] = target: G2/mitotic-specific cyclin-B1 (Homo sapiens, UniProt P14635); assay: G2/M cell cycle arrest in HeLa, late-stage follow-up, mechanism study for Wee1 degradation inhibitor project, FACS, panel member Cyclin B Degradation (AID 2088)
Chain of G2/mitotic-specific cyclin-B1 (P14635 whole entry): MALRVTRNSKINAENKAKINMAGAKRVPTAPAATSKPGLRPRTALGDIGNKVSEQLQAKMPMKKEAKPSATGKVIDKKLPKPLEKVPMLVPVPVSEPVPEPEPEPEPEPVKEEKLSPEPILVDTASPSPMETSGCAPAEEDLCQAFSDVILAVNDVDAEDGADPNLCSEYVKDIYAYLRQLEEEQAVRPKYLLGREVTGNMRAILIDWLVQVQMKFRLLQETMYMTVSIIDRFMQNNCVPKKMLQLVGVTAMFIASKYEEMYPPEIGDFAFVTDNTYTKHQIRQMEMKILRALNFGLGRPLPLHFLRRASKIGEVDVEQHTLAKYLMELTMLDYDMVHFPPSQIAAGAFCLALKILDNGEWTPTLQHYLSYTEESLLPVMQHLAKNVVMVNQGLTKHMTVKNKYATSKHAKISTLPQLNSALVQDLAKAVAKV

[9] = target: Botulinum neurotoxin type F (Clostridium botulinum, UniProt P30996); assay: High-throughput multiplex microsphere dose response for inhibitors of toxin protease, specifically Botulinum neurotoxin light chain F protease, compounds from Cherry Pick 02.; format: functional; conditions: read-out: EC50_MICROM
Prothrombin = Prothrombin (Bos taurus, UniProt P00735); assay: thrombin inhibition, dose response, biochemical, fluorescence polarization, uHTS hits (AID 602369); format: functional
[10] = target: Glucose-6-phosphate 1-dehydrogenase (Homo sapiens, UniProt P11413); assay: human G6PD enzyme inhibitors, dose response, selectivity assay for P. falciparum G6PD inhibitor project, biochemical, fluorescence (AID 504792); format: functional
Chain of Glucose-6-phosphate 1-dehydrogenase (P11413 whole entry): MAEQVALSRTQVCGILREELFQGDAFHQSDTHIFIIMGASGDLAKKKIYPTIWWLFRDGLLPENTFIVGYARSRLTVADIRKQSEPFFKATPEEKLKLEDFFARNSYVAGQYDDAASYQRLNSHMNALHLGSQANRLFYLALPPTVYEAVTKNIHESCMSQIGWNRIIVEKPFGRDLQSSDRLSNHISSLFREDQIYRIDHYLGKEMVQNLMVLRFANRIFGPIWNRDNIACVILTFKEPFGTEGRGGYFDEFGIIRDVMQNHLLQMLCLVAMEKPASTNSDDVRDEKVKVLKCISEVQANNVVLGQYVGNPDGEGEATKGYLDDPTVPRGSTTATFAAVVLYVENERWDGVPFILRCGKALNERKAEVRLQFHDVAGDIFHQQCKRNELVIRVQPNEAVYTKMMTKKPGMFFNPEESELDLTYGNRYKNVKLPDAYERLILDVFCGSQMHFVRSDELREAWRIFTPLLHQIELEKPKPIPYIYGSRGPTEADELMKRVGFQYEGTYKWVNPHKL

[11] = target: T3, COUP transcription factor 2 (Homo sapiens, UniProt P24468); assay: Luminescence-based cell-based high throughput dose response assay to identify inhibitors of COUP-TFII (NR2F2).; format: functional;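 further: HEK293 cells transiently cotransfected with COUP-TFII expression vector and reporter; luciferase reporter luminescence driven by COUP-TFII from the pX2-168 reporter plasmid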
T3 sequence (P24468 whole entry): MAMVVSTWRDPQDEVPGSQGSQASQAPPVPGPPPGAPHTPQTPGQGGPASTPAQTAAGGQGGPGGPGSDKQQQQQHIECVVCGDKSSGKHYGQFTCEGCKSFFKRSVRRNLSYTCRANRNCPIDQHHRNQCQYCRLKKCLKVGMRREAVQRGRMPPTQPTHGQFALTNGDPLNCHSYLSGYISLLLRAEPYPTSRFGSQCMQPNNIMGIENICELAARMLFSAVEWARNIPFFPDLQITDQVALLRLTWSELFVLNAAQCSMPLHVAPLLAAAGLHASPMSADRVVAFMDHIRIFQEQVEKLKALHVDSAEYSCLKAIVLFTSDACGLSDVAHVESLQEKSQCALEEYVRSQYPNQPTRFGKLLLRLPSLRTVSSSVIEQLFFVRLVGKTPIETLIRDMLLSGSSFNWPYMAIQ

[12] = target: Cystic fibrosis transmembrane conductance regulator/Golgi-associated PDZ and coiled-coil motif-containing protein (Homo sapiens, UniProt P13569+Q9HD26); assay: CAL PDZ peptide-binding inhibitors, dose response, biochemical, fluorescence polarization, Cerulean-tagged CAL PDZ, cherry-picks (AID 504773)
[13] = THP-1 cell cytotoxicity, dose response, cytotoxicity control for Vif-APOBEC3G degradation inhibitor project, THP-1 cells (AID 1117359); format: functional; conditions: Human immunodeficiency virus 1, THP-1
[14] = target: T4, Histone-lysine N-methyltransferase NSD2 (Homo sapiens, UniProt O96028); format: biochemical
T4 sequence (O96028 whole entry): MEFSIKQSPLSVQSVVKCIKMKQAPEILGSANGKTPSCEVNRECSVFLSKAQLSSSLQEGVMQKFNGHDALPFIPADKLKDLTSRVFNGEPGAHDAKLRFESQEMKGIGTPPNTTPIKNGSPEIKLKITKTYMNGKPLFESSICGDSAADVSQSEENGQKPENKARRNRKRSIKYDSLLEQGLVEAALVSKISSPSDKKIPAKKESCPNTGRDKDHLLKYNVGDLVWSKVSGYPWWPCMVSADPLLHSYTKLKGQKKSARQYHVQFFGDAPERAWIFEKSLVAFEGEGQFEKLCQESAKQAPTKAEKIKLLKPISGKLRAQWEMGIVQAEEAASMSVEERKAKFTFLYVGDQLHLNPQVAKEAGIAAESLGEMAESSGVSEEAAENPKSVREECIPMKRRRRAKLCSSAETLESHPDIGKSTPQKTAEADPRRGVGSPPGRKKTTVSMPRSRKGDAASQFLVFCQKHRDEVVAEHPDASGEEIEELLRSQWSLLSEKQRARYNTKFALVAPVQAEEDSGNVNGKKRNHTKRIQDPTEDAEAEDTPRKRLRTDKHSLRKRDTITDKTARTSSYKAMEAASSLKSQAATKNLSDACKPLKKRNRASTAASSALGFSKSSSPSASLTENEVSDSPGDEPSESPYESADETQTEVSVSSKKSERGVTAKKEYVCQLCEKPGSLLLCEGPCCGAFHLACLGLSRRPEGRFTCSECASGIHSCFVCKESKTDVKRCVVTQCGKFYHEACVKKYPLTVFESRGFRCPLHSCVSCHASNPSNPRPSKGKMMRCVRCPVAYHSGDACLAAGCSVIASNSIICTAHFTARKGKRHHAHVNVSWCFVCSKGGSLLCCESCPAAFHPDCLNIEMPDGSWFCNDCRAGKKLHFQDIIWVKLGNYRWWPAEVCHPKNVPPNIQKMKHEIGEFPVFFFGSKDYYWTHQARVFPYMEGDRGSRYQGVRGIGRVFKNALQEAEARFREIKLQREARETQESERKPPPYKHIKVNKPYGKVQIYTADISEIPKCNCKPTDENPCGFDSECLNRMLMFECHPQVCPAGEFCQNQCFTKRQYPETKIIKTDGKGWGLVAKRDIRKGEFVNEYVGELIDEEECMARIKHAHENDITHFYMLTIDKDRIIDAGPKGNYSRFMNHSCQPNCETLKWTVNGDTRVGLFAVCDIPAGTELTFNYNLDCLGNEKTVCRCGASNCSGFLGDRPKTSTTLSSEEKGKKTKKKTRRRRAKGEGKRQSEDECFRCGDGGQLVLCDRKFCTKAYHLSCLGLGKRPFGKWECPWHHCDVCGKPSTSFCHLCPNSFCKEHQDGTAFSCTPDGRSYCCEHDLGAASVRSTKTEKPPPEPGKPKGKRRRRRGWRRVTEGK

[15] = target: Matrix metalloproteinase-14 (Homo sapiens, UniProt P50281); assay: Dose Response confirmation of uHTS hits for a small molecule inhibitors of MT1-MMP activation in a fluorescence assay set 1.; format: functional
[16] = target: 72 kDa type IV collagenase (Homo sapiens, UniProt P08253); assay: Dose Response validation of uHTS RPN11 inhibitor hits using a MMP-2 Fluorescence assay.; format: functional
Nonstructural protein 1 = Nonstructural protein 1 (Influenza A virus, UniProt Q194T2); format: functional, Influenza A virus (A/California/07/2009(H1N1))
Chain of Nonstructural protein 1 (Q194T2 whole entry): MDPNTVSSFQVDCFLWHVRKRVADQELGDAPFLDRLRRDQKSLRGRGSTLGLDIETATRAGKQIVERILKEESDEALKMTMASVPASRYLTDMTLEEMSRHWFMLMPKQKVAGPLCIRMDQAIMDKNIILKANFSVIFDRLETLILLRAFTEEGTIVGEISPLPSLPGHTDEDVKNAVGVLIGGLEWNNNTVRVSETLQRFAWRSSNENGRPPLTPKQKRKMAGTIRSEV

[17] = target: Glutathione-S-transferase (Schistosoma japonicum, UniProt Q26513); assay: biotin-GST/anti-GST TR-FRET signal inhibitors, dose response, artefact control for Vif-APOBEC3G degradation inhibitor project, biochemical (AID 1117362); format: functional
[18] = human group III sPLA2 inhibitors, dose response, biochemical, QFRET, IC50 (AID 743457);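 further: green fluorescence rise as the enzyme cleaves BODIPY PC-A2 in liposomes; potency for inhibition of the enzyme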
[19] = target: 26S proteasome non-ATPase regulatory subunit 14 (Homo sapiens, UniProt O00487); assay: inhibition of proteasome subunit RPN11 – biochemical, fluorescence polarization, uHTS hits, confirmation (AID 602368); format: functional
Protein Tat = Protein Tat (Human immunodeficiency virus type 1 group M subtype B (isolate HXB2)(HIV-1), UniProt P04608); format: functional;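 further: tat binding to TAR RNA read out by fluorescence polarization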
Chain of Protein Tat (P04608 whole entry): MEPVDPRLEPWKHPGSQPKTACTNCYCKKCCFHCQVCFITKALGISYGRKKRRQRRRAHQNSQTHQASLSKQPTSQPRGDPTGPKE

T1 sequence (Q00975 whole entry): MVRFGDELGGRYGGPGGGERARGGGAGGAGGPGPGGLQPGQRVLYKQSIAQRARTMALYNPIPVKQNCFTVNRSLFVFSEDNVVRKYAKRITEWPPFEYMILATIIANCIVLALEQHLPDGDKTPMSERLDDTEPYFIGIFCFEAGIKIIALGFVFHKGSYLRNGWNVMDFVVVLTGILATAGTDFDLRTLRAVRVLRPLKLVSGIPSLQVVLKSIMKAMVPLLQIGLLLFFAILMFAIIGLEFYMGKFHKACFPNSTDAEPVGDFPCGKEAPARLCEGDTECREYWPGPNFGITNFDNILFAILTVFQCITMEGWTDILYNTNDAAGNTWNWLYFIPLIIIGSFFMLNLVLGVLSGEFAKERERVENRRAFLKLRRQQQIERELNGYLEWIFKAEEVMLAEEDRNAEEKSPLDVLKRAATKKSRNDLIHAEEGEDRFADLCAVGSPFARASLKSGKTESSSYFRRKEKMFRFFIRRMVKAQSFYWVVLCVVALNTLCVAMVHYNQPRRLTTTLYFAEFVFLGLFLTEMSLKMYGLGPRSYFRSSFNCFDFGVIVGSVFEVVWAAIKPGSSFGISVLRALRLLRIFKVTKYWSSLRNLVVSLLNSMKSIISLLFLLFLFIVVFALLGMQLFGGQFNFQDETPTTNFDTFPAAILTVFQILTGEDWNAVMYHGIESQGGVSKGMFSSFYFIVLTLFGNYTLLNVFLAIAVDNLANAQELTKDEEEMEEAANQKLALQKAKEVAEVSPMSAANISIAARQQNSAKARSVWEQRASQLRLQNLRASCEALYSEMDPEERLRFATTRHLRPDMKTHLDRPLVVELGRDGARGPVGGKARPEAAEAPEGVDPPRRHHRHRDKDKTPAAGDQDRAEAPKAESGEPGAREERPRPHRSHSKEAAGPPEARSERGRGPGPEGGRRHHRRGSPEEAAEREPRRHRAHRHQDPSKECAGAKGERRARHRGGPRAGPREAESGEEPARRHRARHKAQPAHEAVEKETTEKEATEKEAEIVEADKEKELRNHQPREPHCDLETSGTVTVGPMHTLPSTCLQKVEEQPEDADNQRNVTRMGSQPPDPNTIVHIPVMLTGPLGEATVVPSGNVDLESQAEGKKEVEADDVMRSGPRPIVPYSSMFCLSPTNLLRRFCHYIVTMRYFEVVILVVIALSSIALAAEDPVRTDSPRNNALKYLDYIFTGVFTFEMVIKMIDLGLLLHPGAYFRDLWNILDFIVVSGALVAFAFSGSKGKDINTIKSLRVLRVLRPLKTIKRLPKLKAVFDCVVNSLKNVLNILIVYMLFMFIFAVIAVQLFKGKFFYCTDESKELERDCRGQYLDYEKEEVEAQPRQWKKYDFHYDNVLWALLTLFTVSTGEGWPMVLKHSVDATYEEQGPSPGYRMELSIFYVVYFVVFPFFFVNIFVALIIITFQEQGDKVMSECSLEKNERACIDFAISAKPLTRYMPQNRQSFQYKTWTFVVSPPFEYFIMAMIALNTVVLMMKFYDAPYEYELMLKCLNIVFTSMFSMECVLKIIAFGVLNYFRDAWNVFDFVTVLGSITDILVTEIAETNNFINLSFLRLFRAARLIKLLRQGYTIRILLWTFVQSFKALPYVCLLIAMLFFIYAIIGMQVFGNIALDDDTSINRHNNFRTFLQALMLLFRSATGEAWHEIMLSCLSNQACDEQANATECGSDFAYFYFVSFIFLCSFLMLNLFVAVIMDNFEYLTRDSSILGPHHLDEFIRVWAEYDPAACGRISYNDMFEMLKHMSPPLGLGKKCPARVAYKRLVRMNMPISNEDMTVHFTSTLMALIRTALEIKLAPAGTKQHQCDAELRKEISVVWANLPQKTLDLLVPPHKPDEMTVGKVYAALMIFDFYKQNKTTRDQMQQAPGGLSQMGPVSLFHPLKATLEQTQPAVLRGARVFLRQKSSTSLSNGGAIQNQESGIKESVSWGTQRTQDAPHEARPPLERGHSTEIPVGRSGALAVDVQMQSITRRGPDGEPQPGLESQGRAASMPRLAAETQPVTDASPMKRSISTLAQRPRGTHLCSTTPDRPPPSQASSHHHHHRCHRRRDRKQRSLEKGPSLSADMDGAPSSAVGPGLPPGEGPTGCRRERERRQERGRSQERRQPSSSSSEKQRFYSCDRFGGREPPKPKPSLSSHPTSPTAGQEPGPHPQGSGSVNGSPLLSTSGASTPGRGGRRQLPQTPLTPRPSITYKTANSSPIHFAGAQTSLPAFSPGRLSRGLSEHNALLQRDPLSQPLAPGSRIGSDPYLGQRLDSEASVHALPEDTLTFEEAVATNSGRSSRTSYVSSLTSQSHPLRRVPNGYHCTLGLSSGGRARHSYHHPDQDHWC
T1 sequence (Q02410 whole entry): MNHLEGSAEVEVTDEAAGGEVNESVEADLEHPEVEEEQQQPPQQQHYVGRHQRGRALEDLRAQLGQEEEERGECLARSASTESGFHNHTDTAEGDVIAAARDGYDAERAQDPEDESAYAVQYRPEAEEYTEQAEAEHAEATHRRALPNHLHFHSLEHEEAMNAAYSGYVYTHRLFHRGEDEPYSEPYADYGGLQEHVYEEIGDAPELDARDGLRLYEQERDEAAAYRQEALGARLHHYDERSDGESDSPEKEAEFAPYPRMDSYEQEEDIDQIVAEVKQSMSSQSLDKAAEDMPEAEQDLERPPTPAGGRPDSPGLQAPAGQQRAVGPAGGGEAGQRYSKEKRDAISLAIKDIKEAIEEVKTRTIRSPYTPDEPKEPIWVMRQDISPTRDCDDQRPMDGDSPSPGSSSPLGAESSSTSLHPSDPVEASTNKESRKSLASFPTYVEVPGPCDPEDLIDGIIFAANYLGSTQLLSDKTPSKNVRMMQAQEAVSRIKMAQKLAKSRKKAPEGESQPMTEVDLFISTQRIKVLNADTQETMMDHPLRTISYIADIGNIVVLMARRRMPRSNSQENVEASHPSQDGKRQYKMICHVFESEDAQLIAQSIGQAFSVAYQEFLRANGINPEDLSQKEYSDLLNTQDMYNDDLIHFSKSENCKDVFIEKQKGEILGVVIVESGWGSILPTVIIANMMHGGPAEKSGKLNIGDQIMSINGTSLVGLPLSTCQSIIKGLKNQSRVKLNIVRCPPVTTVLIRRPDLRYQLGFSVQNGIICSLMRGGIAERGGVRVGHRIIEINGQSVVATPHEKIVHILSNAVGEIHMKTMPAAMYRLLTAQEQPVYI

O=C(NCCc1ccccn1)c1cc(-c2ccco2)nc2ccccc12
inactive: IC50 [1] > 56.8 µM | IC50 [2] > 56.8 µM

O=[N+]([O-])c1cccc(C=NNc2ccc3ccccc3n2)c1O
inactive: IC50 [4] > 66.6 µM | IC50 (Beta-galactosidase) > 66.6 µM
active: AC50 [3] 2.76 µM | CC50 (Vero) 1.44 µM

CC(C)C[C@H]1CN=C(Nc2ccccc2)N1CC1CCC(C(C)(C)C)CC1 (some centres not stated)
inactive: IC50 [5] > 20 µM
active: AC50 [6] 5.02 µM | AC50 (INS1) 6.54 µM | EC50 [7] 15.7 µM

CC(C)c1ccc(NC(=O)CCCOc2cc(=O)n(C)c3ccccc23)cc1
inactive: EC50 (Wee1-like protein kinase) > 49.7 µM | EC50 [8] > 49.7 µM

COc1cc(N(C)C)ccc1C=c1c2ccccc2n2c1cc(-c1ccccc1)[n+]2C
active: AC50 [3] 7.6 µM | IC50 (Prothrombin) 11.8 µM | IC50 [11] 4.89 µM | AC50 [12] 39.9 µM | CC50 [13] 220 nM | AC50 [14] 3.07 µM | IC50 [15] 14.6 µM | IC50 (Nonstructural protein 1) 3.2 µM | IC50 [17] 3.69 µM | IC50 [19] 24.9 µM | IC50 (Protein Tat) > 100 µM
inactive: EC50 [9] > 20 µM | IC50 [10] > 80 µM | IC50 [16] > 100 µM | IC50 [18] 19.2 µM
